Source: article PMC4850295, “Using a Genetically Encoded Sensor to Identify Inhibitors of Toxoplasma gondii Ca^2+ Signaling” (The Journal of Biological Chemistry, 2016)

test system: T1, GCaMP5-expressing T. gondii; set-up: species or system GCaMP5-expressing Toxoplasma gondii, extracellular; GCaMP5 fluorescence (cytosolic Ca2+) after 100 uM zaprinast in compound-pretreated extracellular parasites, background-subtracted, relative to zaprinast alone; conditions: 100 uM zaprinast stimulation; 10 min pretreatment; mean of two replicates; 0.23 h
T1 construct: whole extracellular parasites expressing GCaMP5 Ca2+ sensor
Method in brief: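 Read-out is GCaMP5 calcium fluorescence (ex 485/em 525 nm) taken 4 min after 100 μM zaprinast at 37 °C, following 10 min compound pretreatment at 10 μM in duplicate biological replicates. Values are basal-subtracted fold change versus zaprinast-only controls; parasites held extracellular in Ringer's solution.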

Row | SMILES | fold change in fluorescence relative to zaprinast alone
1 | O=c1cc(N2CCOCC2)nc2n(Cc3cccc(C(F)(F)F)c3)ccn12 [GSK2297543A] | 0.8956
2 | COc1cc(C2=NC(c3ccc(Cl)cc3F)C(C(=O)Nc3ccc4[nH]ncc4c3)=C(C)N2)ccn1 (centres unmarked) [GSK534911A] | 1.41
3 | CN(C)CCNC(=O)Nc1ccc(N(C)c2ccnc(Nc3ccc(CS(C)(=O)=O)cc3)n2)cc1 [GW830900A] | 1.233
4 | COc1ccc(-c2nc3n(c2-c2ccncc2)CCC3)cc1 [SKF-104493-B2] | 0.9045
5 | CS(=O)(=O)CCNCc1coc(-c2ccc3ncnc(Nc4ccc(OCc5ccccc5)cc4)c3c2)c1 [GW566221B] | 0.9966
6 | O=C(NCCNc1ccnc(NCc2ccc(F)cc2)n1)c1cc2ccccc2s1 [GSK1379944A] | 0.7055
7 | COc1cc(Nc2nccc(N3CCC(NS(=O)(=O)c4ccc(NC(C)=O)cc4)CC3)n2)cc(OC)c1OC [GSK1379825A] | 1.055
8 | CCNC(=O)O[C@H]1CN[C@H](C#Cc2cc3ncnc(Nc4ccc(OCc5cccc(F)c5)c(Cl)c4)c3s2)C1 [GSK192082A] | 1.213
9 | CN(c1ccc(NC(=O)Nc2cc(C(F)(F)F)ccc2F)cc1)c1ccnc(Nc2ccc(S(N)(=O)=O)cc2)n1 [GW809893X] | 0.2843
10 | c1ccc(-c2n[nH]cc2-c2ccnc(-c3ccc(OCCn4ccnc4)cc3)c2)nc1 [GW711782X] | 1.163
11 | COc1ccc(Nc2nccc(NCCNC(=O)Nc3cc(C)ccc3C)n2)cc1 [GSK1379899A] | 1.713
12 | Cn1cc(-c2cnc(N)c3c(-c4ccc5c(c4)CCN5C(=O)Cc4ccccc4)csc23)cn1 [GSK2593074A] | 1.463
13 | Cn1cc(-c2ccc3c(c2)CCN3C(=O)Cc2cccc(F)c2)c2c(N)ncnc21 [GSK2603358A] | 1.56
14 | Fc1ccc(-c2ncn(C3CCNCC3)c2-c2ccnc(Oc3ccc4c(c3)OCO4)n2)cc1 [SB-250715] | 1.074
15 | Cc1ccc2c(-c3ccnc(Nc4ccc(C(F)(F)F)cc4)n3)cnn2n1 [GW819776X] | 1.244
16 | O=C1NC(=O)C(c2ccccc2)=C1Nc1cccc(O)c1 [SB-390534] | 0.8317
17 | Cc1ccc(NC(=O)Nc2ccc(Cl)c(C(F)(F)F)c2)cc1-c1ccc(C(=O)Nc2ccncc2)cc1 [GSK1398470A] | 0.581
18 | N#Cc1c(NC(=O)c2ccc(F)cc2)sc2c1CCCC2 [SB-347804] | 1.012
19 | CC1=C(C(=O)Nc2cc3cn[nH]c3cc2F)C(c2ccc(C(F)(F)F)cc2)CC(=O)N1 (centres unmarked) [GSK429286A] | 1.046
20 | CNc1ncnc2[nH]ncc12 [SKF-18355] | 1.025
21 | COc1cc(Nc2nccc(N3CCC(NC(=O)Nc4ccc5c(c4)OCO5)C3)n2)cc(OC)c1OC (centres unmarked) [GSK1379766A] | 1.478
22 | Cc1cc(Cl)cc2c1NC(=O)C2=NNc1ccc(S(N)(=O)=O)cc1 [GW279320X] | 1.035
23 | c1ccc(-c2[nH]ncc2-c2ccnc(-c3ccc(CNC4CCOCC4)cc3)c2)nc1 [GW709213X] | 1.08
24 | COc1cccc(-n2ncc3c(N/N=C/c4ccc(C)cc4)ncnc32)c1 [GW829877X] | 1.18
25 | CS(=O)(=O)Cc1ccc(Nc2nccc(-c3c(-c4cccc(NC(=O)c5c(F)cccc5F)c4)nn4ccccc34)n2)cc1 [GSK323543A] | 1.565

Row | SMILES | fold change in fluorescence relative to zaprinast alone
26 | CCn1c(-c2nonc2N)nc2c(C#CC(C)(C)O)nc(OC[C@@H](N)c3ccccc3)cc21 [GSK938890A] | 1.022
27 | Nc1nonc1-c1nc2cnccc2n1C1CC1 [SB-736302] | 1.282
28 | O=C(Nc1n[nH]c2cc(-c3cccs3)ccc12)C1CC1 [SB-731284] | 1.194
29 | CSc1ccc(NC2=C(c3ccccc3Cl)C(=O)NC2=O)cc1 [SB-342411] | 0.8828
30 | O=C(Nc1ccccc1F)NC1CCN(c2ccnc(Nc3ccc(F)cc3)n2)CC1 [GSK1379800A] | 0.9564
31 | NCC(NC(=O)c1cc(-c2cn[nH]c2)c(-c2ccnc3[nH]ccc23)s1)c1ccccc1 (centres unmarked) [GSK1325775A] | 1.276
32 | C=CC(=O)Nc1cc2c(Nc3ccc(F)c(Cl)c3)ncnc2cc1OCCCN1CCOCC1 [GW781483X] | 1.29
33 | Fc1ccc(-c2cc(-c3c[nH]nc3-c3ccccn3)ccn2)cc1 [GW680975X] | 1.061
34 | Cc1c(Cn2c3ccccc3n3c(=O)cc(N4CCOCC4)nc23)cccc1C(F)(F)F [GSK2306394A] | 0.7248
35 | C/C(Nc1ccc(S(N)(=O)=O)cc1)=C1/C(=O)Nc2ccccc21 [GW335962X] | 1.108
36 | COC(=O)c1cccc(NC(=O)NC2CCN(c3ccnc(NCc4ccc(F)cc4)n3)CC2)c1 [GSK1379860A] | 0.8716
37 | Cc1ccc2c(c1)/C(=N/Nc1ccc(S(N)(=O)=O)cc1)C(=O)N2 [GW275944X] | 1.616
38 | Cc1cccc(Nc2nc(N[C@H]3CCNC3)ncc2C(N)=O)c1 [GSK2197149A] | 1.037
39 | COc1cc2ncn(-c3cc(OCC4CCCCC4)c(C(N)=O)s3)c2cc1OC [GSK204559A] | 1.336
40 | COc1ccc(Nc2ncc(C#N)c(Nc3ccccc3C(N)=O)n2)cc1N1CCN(C)CC1 [GSK1558669A] | 1.412
41 | CN1CCN(CCNc2nc3ccc(Oc4ccc(NC(=O)Nc5cc(C(F)(F)F)ccc5F)cc4)cc3[nH]2)CC1 [GW768504A] | 0.9512
42 | CN1CCN(Cc2cccc(-c3ccc4c(Nc5ccc(Oc6ccccc6)cc5)ccnc4c3)c2)CC1 [GW578342X] | 1.603
43 | COC(=O)Nc1nc2ccc(Oc3ccc(NC(=O)Nc4cc(C(F)(F)F)ccc4F)cn3)cc2[nH]1 [GW681170A] | 1.637
44 | COc1ccc(Nc2ncc(-c3ccccc3)o2)cc1OC [GW575533A] | 1.197
45 | CNC(=O)c1cc(-c2ccc(F)cc2)cc(-c2ccc(S(=O)(=O)N3CCCC3)cc2)c1N [GSK635416A] | 1.111
46 | COc1cccc(NC(=O)NCCNc2ccnc(Nc3ccc(F)cc3)n2)c1 [GSK1379879A] | 1.178
47 | Cc1ccc(C(=O)NC(C)C)cc1-c1ccc(C(=O)NCC2CC2)cc1 [GW785974X] | 1.119
48 | NS(=O)(=O)c1cccc(N/C=C2\C(=O)Nc3ccccc32)c1 [GW275616X] | 0.9797
49 | Nc1nc(-c2ccc3c(N)n[nH]c3c2)cc(N2CCCC2)n1 [GSK2227430A] | 1.158
50 | Cc1nn2c(=O)cc(N3CCOC(C)C3)nc2n1Cc1cccc(Cl)c1Cl (centres unmarked) [GSK2373693A] | 0.7316
